Measurements from the NIST ThermoML archive (doi:10.1016/j.jct.2018.12.028).

Experiment: wn = mass fraction of the nth substance listed
Conditions: 101.3 kPa, Liquid; for viscosity: Falling or rolling sphere viscometry; for mass density: Vibrating tube method

COCCO [2-methoxyethan-1-ol] + NCCO
Conditions | mass density [kg/m3] | viscosity [mPa·s]
293.15 K, w2 = 0 | 964.7 | 1.692
293.15 K, w2 = 0.1 | 971.8 | 2.321
293.15 K, w2 = 0.3 | 984.5 | 4.371
293.15 K, w2 = 0.5 | 995.6 | 7.952
293.15 K, w2 = 0.7 | 1005.1 | 13
293.15 K, w2 = 0.898 | 1013.4 | 20.5
298.15 K, w2 = 0 | 960.1 | 1.527
298.15 K, w2 = 0.1 | 967.3 | 2.065
298.15 K, w2 = 0.3 | 980.2 | 3.765
298.15 K, w2 = 0.5 | 991.4 | 6.634
298.15 K, w2 = 0.7 | 1001 | 10.51
298.15 K, w2 = 0.898 | 1009.4 | 16.17
303.15 K, w2 = 0 | 955.5 | 1.386
303.15 K, w2 = 0.1 | 962.8 | 1.849
303.15 K, w2 = 0.3 | 975.8 | 3.269
303.15 K, w2 = 0.5 | 987.1 | 5.598
303.15 K, w2 = 0.7 | 996.9 | 8.619
303.15 K, w2 = 0.898 | 1005.4 | 12.97
308.15 K, w2 = 0 | 950.9 | 1.262
308.15 K, w2 = 0.1 | 958.3 | 1.664
308.15 K, w2 = 0.3 | 971.5 | 2.861
308.15 K, w2 = 0.5 | 982.9 | 4.773
308.15 K, w2 = 0.7 | 992.8 | 7.158
308.15 K, w2 = 0.898 | 1001.4 | 10.55
313.15 K, w2 = 0 | 946.2 | 1.155
313.15 K, w2 = 0.1 | 953.7 | 1.504
313.15 K, w2 = 0.3 | 967.1 | 2.521
313.15 K, w2 = 0.5 | 978.6 | 4.105
313.15 K, w2 = 0.7 | 988.6 | 6.011
313.15 K, w2 = 0.898 | 997.3 | 8.699
318.15 K, w2 = 0 | 941.5 | 1.061
318.15 K, w2 = 0.1 | 949.1 | 1.367
318.15 K, w2 = 0.3 | 962.7 | 2.235
318.15 K, w2 = 0.5 | 974.3 | 3.561
318.15 K, w2 = 0.7 | 984.4 | 5.098
318.15 K, w2 = 0.898 | 993.3 | 7.265
323.15 K, w2 = 0 | 936.7 | 0.9781
323.15 K, w2 = 0.1 | 944.5 | 1.246
323.15 K, w2 = 0.3 | 958.2 | 1.992
323.15 K, w2 = 0.5 | 970 | 3.112
323.15 K, w2 = 0.7 | 980.3 | 4.367
323.15 K, w2 = 0.898 | 989.2 | 6.134
328.15 K, w2 = 0 | 932 | 0.905
328.15 K, w2 = 0.1 | 939.9 | 1.141
328.15 K, w2 = 0.3 | 953.8 | 1.786
328.15 K, w2 = 0.5 | 965.7 | 2.741
328.15 K, w2 = 0.7 | 976 | 3.775
328.15 K, w2 = 0.898 | 985.1 | 5.229
333.15 K, w2 = 0 | 927.2 | 0.8397
333.15 K, w2 = 0.1 | 935.2 | 1.049
333.15 K, w2 = 0.3 | 949.2 | 1.609
333.15 K, w2 = 0.5 | 961.3 | 2.427
333.15 K, w2 = 0.7 | 971.8 | 3.288
333.15 K, w2 = 0.898 | 981 | 4.503
338.15 K, w2 = 0 | 922.3 | 0.7818
338.15 K, w2 = 0.1 | 930.4 | 0.967
338.15 K, w2 = 0.3 | 944.7 | 1.456
338.15 K, w2 = 0.5 | 956.9 | 2.161
338.15 K, w2 = 0.7 | 967.5 | 2.884
338.15 K, w2 = 0.898 | 976.9 | 3.91
343.15 K, w2 = 0 | 917.4 | 0.7298
343.15 K, w2 = 0.1 | 925.7 | 0.8945
343.15 K, w2 = 0.3 | 940.1 | 1.324
343.15 K, w2 = 0.5 | 952.5 | 1.936
343.15 K, w2 = 0.7 | 963.3 | 2.546
343.15 K, w2 = 0.898 | 972.7 | 3.42
348.15 K, w2 = 0 | 912.4 | 0.6834
348.15 K, w2 = 0.1 | 920.8 | 0.8302
348.15 K, w2 = 0.3 | 935.5 | 1.207
348.15 K, w2 = 0.5 | 948 | 1.741
348.15 K, w2 = 0.7 | 958.9 | 2.261
348.15 K, w2 = 0.898 | 968.5 | 3.011
353.15 K, w2 = 0 | 907.4 | 0.6409
353.15 K, w2 = 0.1 | 916 | 0.7712
353.15 K, w2 = 0.3 | 930.8 | 1.105
353.15 K, w2 = 0.5 | 943.5 | 1.568
353.15 K, w2 = 0.7 | 954.6 | 2.019
353.15 K, w2 = 0.898 | 964.3 | 2.67
